Experimental data reported in PubChem BioAssay (NCI).
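Method: 48-hour compound exposure of cells in 96-well plates, five concentrations, linear interpolation of endpoints. GI50 marks 50% less growth. The concentration for full growth arrest is given as TGI.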

Columns and labels:
Experiment in all cases: NCI tumour cell line growth inhibition, 48 h
786-0 renal = system: 786-0 renal
A498 renal = system: A498 renal
A549 NSCLC = system: A549 NSCLC
ACHN renal = system: ACHN renal
BT-549 breast = system: BT-549 breast
CAKI-1 renal = system: CAKI-1 renal
CCRF-CEM leukemia = system: CCRF-CEM leukemia
COLO 205 colon = system: COLO 205 colon
DU-145 prostate = system: DU-145 prostate
EKVX NSCLC = system: EKVX NSCLC
HCC-2998 colon = system: HCC-2998 colon
HCT-116 colon = system: HCT-116 colon
HCT-15 colon = system: HCT-15 colon
HL-60(TB) leukemia = system: HL-60(TB) leukemia
HOP-62 NSCLC = system: HOP-62 NSCLC
HOP-92 NSCLC = system: HOP-92 NSCLC
HS 578T breast = system: HS 578T breast
HT29 colon = system: HT29 colon
IGROV1 ovarian = system: IGROV1 ovarian
K-562 leukemia = system: K-562 leukemia
KM12 colon = system: KM12 colon
LOX IMVI melanoma = system: LOX IMVI melanoma
M14 melanoma = system: M14 melanoma
MALME-3M melanoma = system: MALME-3M melanoma
MCF7 breast = system: MCF7 breast
MDA-MB-231 breast = system: MDA-MB-231 breast
MDA-MB-435 = system: MDA-MB-435
MDA-MB-468 breast = system: MDA-MB-468 breast
MOLT-4 leukemia = system: MOLT-4 leukemia
NCI-H226 lung = system: NCI-H226 lung
NCI-H23 lung = system: NCI-H23 lung
NCI-H460 lung = system: NCI-H460 lung
NCI-H522 lung = system: NCI-H522 lung
NCI/ADR-RES ovarian = system: NCI/ADR-RES ovarian
OVCAR-3 ovarian = system: OVCAR-3 ovarian
OVCAR-4 ovarian = system: OVCAR-4 ovarian
OVCAR-5 ovarian = system: OVCAR-5 ovarian
OVCAR-8 ovarian = system: OVCAR-8 ovarian
PC-3 prostate = system: PC-3 prostate
RPMI-8226 leukemia = system: RPMI-8226 leukemia
RXF 393 renal = system: RXF 393 renal
SF-268 CNS = system: SF-268 CNS
SF-295 CNS = system: SF-295 CNS
SF-539 CNS = system: SF-539 CNS
SK-MEL-2 melanoma = system: SK-MEL-2 melanoma
SK-MEL-28 melanoma = system: SK-MEL-28 melanoma
SK-MEL-5 melanoma = system: SK-MEL-5 melanoma
SK-OV-3 ovarian = system: SK-OV-3 ovarian
SN12C renal = system: SN12C renal
SNB-19 CNS = system: SNB-19 CNS
SNB-75 CNS = system: SNB-75 CNS
SR leukemia = system: SR leukemia
SW-620 colon = system: SW-620 colon
T-47D breast = system: T-47D breast
TK-10 renal = system: TK-10 renal
U251 CNS = system: U251 CNS
UACC-257 melanoma = system: UACC-257 melanoma
UACC-62 melanoma = system: UACC-62 melanoma
UO-31 renal = system: UO-31 renal

Structure (SMILES): COc1ccc(NC(=O)CSc2nnc(-c3ccc(-c4nc5ccc(Cl)cc5[nH]4)cc3)o2)cc1
- GI50 (786-0 renal): 1.74 µM
- TGI (786-0 renal): 3.56 µM
- GI50 (A498 renal): 4.26 µM
- TGI (A498 renal): 16 µM
- GI50 (A549 NSCLC): 2.44 µM
- TGI (A549 NSCLC): 10.7 µM
- GI50 (ACHN renal): 2.69 µM
- TGI (ACHN renal): 11.6 µM
- GI50 (BT-549 breast): 2.75 µM
- TGI (BT-549 breast): 6.12 µM
- GI50 (CAKI-1 renal): 1.54 µM
- TGI (CAKI-1 renal): 3.38 µM
- GI50 (CCRF-CEM leukemia): 6.86 µM
- TGI (CCRF-CEM leukemia): > 100 µM
- GI50 (COLO 205 colon): 19 µM
- TGI (COLO 205 colon): 92.1 µM
- GI50 (DU-145 prostate): 2.29 µM
- TGI (DU-145 prostate): 5.61 µM
- GI50 (EKVX NSCLC): 2.67 µM
- TGI (EKVX NSCLC): 13.3 µM
- GI50 (HCC-2998 colon): 43.5 µM
- TGI (HCC-2998 colon): > 100 µM
- GI50 (HCT-116 colon): 3.91 µM
- TGI (HCT-116 colon): 26.7 µM
- GI50 (HCT-15 colon): 7.77 µM
- TGI (HCT-15 colon): 84.2 µM
- GI50 (HL-60(TB) leukemia): > 100 µM
- TGI (HL-60(TB) leukemia): > 100 µM
- GI50 (HOP-62 NSCLC): 2.52 µM
- TGI (HOP-62 NSCLC): 5.37 µM
- GI50 (HOP-92 NSCLC): 2.62 µM
- TGI (HOP-92 NSCLC): 10.6 µM
- GI50 (HS 578T breast): 2.28 µM
- TGI (HS 578T breast): 7.23 µM
- GI50 (HT29 colon): 4.9 µM
- TGI (HT29 colon): 23.3 µM
- GI50 (IGROV1 ovarian): 12.4 µM
- TGI (IGROV1 ovarian): 25.3 µM
- GI50 (K-562 leukemia): 2.74 µM
- TGI (K-562 leukemia): > 100 µM
- GI50 (KM12 colon): 5.16 µM
- TGI (KM12 colon): 25.7 µM
- GI50 (LOX IMVI melanoma): 2.29 µM
- TGI (LOX IMVI melanoma): 6.68 µM
- GI50 (M14 melanoma): 3.74 µM
- TGI (M14 melanoma): 17.2 µM
- GI50 (MALME-3M melanoma): 1.9 µM
- TGI (MALME-3M melanoma): 5.63 µM
- GI50 (MCF7 breast): 4.39 µM
- TGI (MCF7 breast): 74.2 µM
- GI50 (MDA-MB-231 breast): 3.77 µM
- TGI (MDA-MB-231 breast): 13.8 µM
- GI50 (MDA-MB-435): 1.87 µM
- TGI (MDA-MB-435): 8.03 µM
- GI50 (MDA-MB-468 breast): 15 µM
- TGI (MDA-MB-468 breast): 38.4 µM
- GI50 (MOLT-4 leukemia): 6.46 µM
- TGI (MOLT-4 leukemia): > 100 µM
- GI50 (NCI-H226 lung): 1.94 µM
- TGI (NCI-H226 lung): 5.19 µM
- GI50 (NCI-H23 lung): 2.97 µM
- TGI (NCI-H23 lung): 11.4 µM
- GI50 (NCI-H460 lung): 1.35 µM
- TGI (NCI-H460 lung): 4.16 µM
- GI50 (NCI-H522 lung): 2.11 µM
- TGI (NCI-H522 lung): 8.03 µM
- GI50 (NCI/ADR-RES ovarian): 10.2 µM
- TGI (NCI/ADR-RES ovarian): 42.9 µM
- GI50 (OVCAR-3 ovarian): 3.72 µM
- TGI (OVCAR-3 ovarian): 14 µM
- GI50 (OVCAR-4 ovarian): 3.02 µM
- TGI (OVCAR-4 ovarian): 10 µM
- GI50 (OVCAR-5 ovarian): 6.44 µM
- TGI (OVCAR-5 ovarian): 22 µM
- GI50 (OVCAR-8 ovarian): 3.58 µM
- TGI (OVCAR-8 ovarian): 26 µM
- GI50 (PC-3 prostate): 1.61 µM
- TGI (PC-3 prostate): 4.27 µM
- GI50 (RPMI-8226 leukemia): 12 µM
- TGI (RPMI-8226 leukemia): > 100 µM
- GI50 (RXF 393 renal): 2.3 µM
- TGI (RXF 393 renal): 5.61 µM
- GI50 (SF-268 CNS): 2.22 µM
- TGI (SF-268 CNS): 5.48 µM
- GI50 (SF-295 CNS): 1.36 µM
- TGI (SF-295 CNS): 4.05 µM
- GI50 (SF-539 CNS): 1.9 µM
- TGI (SF-539 CNS): 4.52 µM
- GI50 (SK-MEL-2 melanoma): 6.96 µM
- TGI (SK-MEL-2 melanoma): 25.4 µM
- GI50 (SK-MEL-28 melanoma): 1.96 µM
- TGI (SK-MEL-28 melanoma): 5.79 µM
- GI50 (SK-MEL-5 melanoma): 3.02 µM
- TGI (SK-MEL-5 melanoma): 11.8 µM
- GI50 (SK-OV-3 ovarian): 2.87 µM
- TGI (SK-OV-3 ovarian): 7.61 µM
- GI50 (SN12C renal): 3.27 µM
- TGI (SN12C renal): 16.3 µM
- GI50 (SNB-19 CNS): 2.54 µM
- TGI (SNB-19 CNS): 7.59 µM
- GI50 (SNB-75 CNS): 1.42 µM
- TGI (SNB-75 CNS): 3.86 µM
- GI50 (SR leukemia): 10.3 µM
- TGI (SR leukemia): > 100 µM
- GI50 (SW-620 colon): 4.54 µM
- TGI (SW-620 colon): 20.6 µM
- GI50 (T-47D breast): 14.2 µM
- TGI (T-47D breast): 57.9 µM
- GI50 (TK-10 renal): 16.5 µM
- TGI (TK-10 renal): 30.1 µM
- GI50 (U251 CNS): 4.83 µM
- TGI (U251 CNS): 16.5 µM
- GI50 (UACC-257 melanoma): 3.83 µM
- TGI (UACC-257 melanoma): 23.6 µM
- GI50 (UACC-62 melanoma): 3.81 µM
- TGI (UACC-62 melanoma): 15.3 µM
- GI50 (UO-31 renal): 10.9 µM
- TGI (UO-31 renal): 23.1 µM
